Laboratory results from patent US10918645B2 (LIFEARC, priority 2016, dated 2021).

Experiments:
Format in all cases: biochemical
Conditions in all cases: 1 μM inhibitor concentration
HIPK2 = HIPK2 (Homo sapiens (Human), UniProt Q9H2X6); assay: HIPK2 kinase selectivity assay
Procedure: 5-20 mU of HIPK2 (diluted in 50 mM Tris (pH 7.5), […] EGTA, 1 mg/ml BSA, 0.1%, b-Mercaptoethanol) is assayed against MBP in a final volume of 25.5 μl containing 50 mM Tris (pH 7.5), 0.1 mM EGTA, 0.1%, b-Mercaptoethanol, 0.33 mg/ml MBP, 10 mM magnesium acetate and 0.005 mM [33P-g-ATP](500-1000 cpm/pmole) and incubated for 30 mins at room temperature. Assays are stopped by addition of 5 μl of 0.5M (3%) orthophosphoric acid. Assays are harvested onto P81 Unifilter plates using a wash buffer of 50 mM orthophosphoric acid.

EPH-A2 = EPH-A2 (Homo sapiens (Human), UniProt P29317); assay: EPH-A2 kinase selectivity assay
Procedure: EPH-A2 (5-20 mU diluted in 50 mM Tris pH 7.5, 0.1 mM EGTA, 1 mg/ml BSA) is assayed against a substrate peptide (Poly Glut Tyr) in a final volume of 25.5 μl containing 50 mM Tris pH 7.5, 0.1 mg/ml substrate peptide, 10 mM magnesium acetate and 0.05 mM [33P-g-ATP] (50-1000 cpm/pmole) and incubated for 30 min at room temperature. Assays are stopped by addition of 5 μl of 0.5 M (3%) orthophosphoric acid and then harvested onto P81 Unifilter plates with a wash buffer of 50 mM orthophosphoric acid.

FGF-R1 = FGF-R1 (Homo sapiens (Human), UniProt P11362); assay: FGF-R1 kinase selectivity assay
Procedure: FGF-R1 (5-20 mU diluted in 50 mM Tris pH 7.5, 0.1 mM EGTA, 1 mg/ml BSA) is assayed against a substrate peptide (Poly Glut Tyr) in a final volume of 25.5 μl containing 50 mM Tris pH 7.5, 1 mg/ml substrate peptide, 10 mM magnesium acetate and 0.02 mM [33P-g-ATP] (50-1000 cpm/pmole) and incubated for 30 min at room temperature. Assays are stopped by addition of 5 μl of 0.5 M (3%) orthophosphoric acid and then harvested onto P81 Unifilter plates with a wash buffer of 50 mM orthophosphoric acid.

NUAK1 = NUAK1 (Homo sapiens (Human), UniProt O60285); assay: NUAK1 kinase selectivity assay
Procedure: NUAK1 (5-20 mU diluted in 50 mM Tris pH 7.5, 0.1 mM EGTA, 0.1% 0-mercaptoethanol, 1 mg/ml BSA) is assayed against […] in a final volume of 25.5 μl containing 50 mM Tris pH 7.5, 0.1 mM EGTA, 0.3 mM […], 10 mM magnesium acetate and 0.02 mM [33P-γ-ATP] (50-1000 cpm/pmole) and incubated for 30 min at room temperature. Assays are stopped by addition of 5 μl of 0.5 M (3%) orthophosphoric acid and then harvested onto P81 Unifilter plates with a wash buffer of 50 mM orthophosphoric acid.

CK1δ = CK1δ (Homo sapiens (Human), UniProt P48730); assay: CK1 kinase selectivity assay
Procedure: CK1 (5-20 mU diluted in 20 mM Hepes pH7.5, 0.15 M NaCl, 0.1 mM EGTA, 0.1% Triton X-100, 5 mM DTT, 50% glycerol) is assayed against CKI peptide ([…]) in a final volume of 25.5 μl containing 20 mM Hepes pH 7.5, 0.15 M NaCl, 0.1 mM EDTA, 5 mM DTT, 0.1% Triton-X 100, CKI peptide (0.5 mM), 10 mM magnesium acetate and 0.02 mM [33P-g-ATP](500-1000 cpm/pmole) and incubated for 30 min at room temperature. Assays are stopped by addition of 5 μl of 0.5 M (3%) orthophosphoric acid and then harvested onto P81 Unifilter plates with a wash buffer of 50 mM orthophosphoric acid.

CAMKKb = CAMKKb (Homo sapiens (Human), UniProt Q96RR4); assay: CAMKKb kinase selectivity assay
Procedure: 5-20 mU of CAMKKb (diluted in 50 mM Tris (pH 7.5), 0.1 mM EGTA, 1 mg/ml BSA, 0.1%, b-Mercaptoethanol) is assayed against substrate peptide ([…]) in a final volume of 25.5 μl containing 50 mM Tris (pH 7.5), 0.1 mM EGTA, 0.5 mM CaCl2, 0.3 μM calmodulin, 0.1%, b-Mercaptoethanol, 300 μM substrate peptide, 10 mM magnesium acetate and 0.02 mM [33P-g-ATP](500-1000 cpm/pmole) and incubated for 30 mins at room temperature. Assays are stopped by addition of 5 μl of 0.5M (3%) orthophosphoric acid. Assays are harvested onto P81 Unifilter plates using a wash buffer of 50 mM orthophosphoric acid.

SRPK1 = SRPK1 (Homo sapiens (Human), UniProt Q96SB4); assay: SRPK1 kinase selectivity assay
Procedure: 5-20 mU of SRPK1 (diluted in 50 mM Tris (pH 7.5), 0.1 mM EGTA, 1 mg/ml BSA, 0.1%, b-Mercaptoethanol) is assayed against substrate peptide ([…]) in a final volume of […] containing 50 mM Tris (pH 7.5), 0.1 mM EGTA, 0.1%, b-Mercaptoethanol, 300 μM substrate peptide, 10 mM magnesium acetate and 0.05 mM [33P-g-ATP](500-1000 cpm/pmole) and incubated for 30 mins at room temperature. Assays are stopped by addition of 5 μl of 0.5M (3%) orthophosphoric acid. Assays are harvested onto P81 Unifilter plates using a wash buffer of 50 mM orthophosphoric acid.

AuroraB = AuroraB (Homo sapiens (Human), UniProt Q96GD4); assay: AuroraB kinase selectivity assay
Procedure: Aurora B (5-20 mU diluted in 50 mM Tris pH 7.5, 0.1 mM EGTA, 0.1% b-mercaptoethanol, 1 mg/ml BSA) is assayed against a substrate peptide ([…]) in a final volume of 25.5 μl containing 50 mM Tris pH 7.5, 0.05% b-mercaptoethanol, 300 μM substrate peptide, 10 mM magnesium acetate and 0.02 mM [33P-g-ATP](50-1000 cpm/pmole) and incubated for 30 min at room temperature. Assays are stopped by addition of 5 μl of 0.5 M (3%) orthophosphoric acid and then harvested onto P81 Unifilter plates with a wash buffer of 50 mM orthophosphoric acid.

CK1δ, sequence (P48730 whole entry): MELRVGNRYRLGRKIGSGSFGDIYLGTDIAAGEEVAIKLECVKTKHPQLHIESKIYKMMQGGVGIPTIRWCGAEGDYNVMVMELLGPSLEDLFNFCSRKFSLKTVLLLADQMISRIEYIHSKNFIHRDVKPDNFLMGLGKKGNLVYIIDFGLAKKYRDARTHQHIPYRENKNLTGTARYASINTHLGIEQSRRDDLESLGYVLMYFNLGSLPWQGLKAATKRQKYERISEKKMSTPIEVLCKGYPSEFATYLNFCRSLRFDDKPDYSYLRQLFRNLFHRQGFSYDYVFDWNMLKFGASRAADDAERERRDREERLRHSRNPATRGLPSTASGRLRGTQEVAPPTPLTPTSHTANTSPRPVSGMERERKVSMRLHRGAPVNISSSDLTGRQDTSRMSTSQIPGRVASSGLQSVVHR
HIPK2, sequence (Q9H2X6 whole entry, species assumed): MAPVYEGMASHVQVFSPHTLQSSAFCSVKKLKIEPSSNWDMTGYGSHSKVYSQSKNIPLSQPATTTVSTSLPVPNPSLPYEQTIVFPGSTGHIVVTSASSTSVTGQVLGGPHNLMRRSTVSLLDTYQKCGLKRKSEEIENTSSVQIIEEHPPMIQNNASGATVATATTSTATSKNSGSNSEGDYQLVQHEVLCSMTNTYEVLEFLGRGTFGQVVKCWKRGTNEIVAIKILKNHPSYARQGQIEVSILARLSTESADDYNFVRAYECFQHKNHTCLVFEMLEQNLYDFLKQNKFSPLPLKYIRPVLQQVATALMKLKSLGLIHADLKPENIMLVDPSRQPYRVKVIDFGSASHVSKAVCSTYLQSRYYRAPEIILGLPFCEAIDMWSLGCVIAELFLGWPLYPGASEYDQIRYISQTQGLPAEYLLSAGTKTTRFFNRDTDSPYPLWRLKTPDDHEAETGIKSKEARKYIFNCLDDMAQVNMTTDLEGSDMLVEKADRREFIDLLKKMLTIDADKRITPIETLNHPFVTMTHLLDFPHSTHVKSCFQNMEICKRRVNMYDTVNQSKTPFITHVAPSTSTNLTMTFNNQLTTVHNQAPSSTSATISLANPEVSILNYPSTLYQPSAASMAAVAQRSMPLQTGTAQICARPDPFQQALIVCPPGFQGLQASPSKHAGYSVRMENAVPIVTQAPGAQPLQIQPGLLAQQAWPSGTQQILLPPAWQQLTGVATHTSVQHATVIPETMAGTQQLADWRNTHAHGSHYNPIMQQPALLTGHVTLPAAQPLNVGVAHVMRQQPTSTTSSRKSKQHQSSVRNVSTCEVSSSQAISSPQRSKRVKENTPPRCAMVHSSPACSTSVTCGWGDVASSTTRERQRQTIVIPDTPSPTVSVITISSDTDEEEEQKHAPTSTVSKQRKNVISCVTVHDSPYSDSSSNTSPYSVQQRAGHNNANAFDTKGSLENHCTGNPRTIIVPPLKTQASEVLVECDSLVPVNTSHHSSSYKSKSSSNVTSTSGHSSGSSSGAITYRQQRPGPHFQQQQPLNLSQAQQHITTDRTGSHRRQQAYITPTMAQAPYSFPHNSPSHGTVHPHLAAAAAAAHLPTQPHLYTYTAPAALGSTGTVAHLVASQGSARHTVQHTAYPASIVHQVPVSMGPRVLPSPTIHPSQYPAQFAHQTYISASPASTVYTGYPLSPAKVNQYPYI
FGF-R1, sequence (P11362 22-822, species assumed): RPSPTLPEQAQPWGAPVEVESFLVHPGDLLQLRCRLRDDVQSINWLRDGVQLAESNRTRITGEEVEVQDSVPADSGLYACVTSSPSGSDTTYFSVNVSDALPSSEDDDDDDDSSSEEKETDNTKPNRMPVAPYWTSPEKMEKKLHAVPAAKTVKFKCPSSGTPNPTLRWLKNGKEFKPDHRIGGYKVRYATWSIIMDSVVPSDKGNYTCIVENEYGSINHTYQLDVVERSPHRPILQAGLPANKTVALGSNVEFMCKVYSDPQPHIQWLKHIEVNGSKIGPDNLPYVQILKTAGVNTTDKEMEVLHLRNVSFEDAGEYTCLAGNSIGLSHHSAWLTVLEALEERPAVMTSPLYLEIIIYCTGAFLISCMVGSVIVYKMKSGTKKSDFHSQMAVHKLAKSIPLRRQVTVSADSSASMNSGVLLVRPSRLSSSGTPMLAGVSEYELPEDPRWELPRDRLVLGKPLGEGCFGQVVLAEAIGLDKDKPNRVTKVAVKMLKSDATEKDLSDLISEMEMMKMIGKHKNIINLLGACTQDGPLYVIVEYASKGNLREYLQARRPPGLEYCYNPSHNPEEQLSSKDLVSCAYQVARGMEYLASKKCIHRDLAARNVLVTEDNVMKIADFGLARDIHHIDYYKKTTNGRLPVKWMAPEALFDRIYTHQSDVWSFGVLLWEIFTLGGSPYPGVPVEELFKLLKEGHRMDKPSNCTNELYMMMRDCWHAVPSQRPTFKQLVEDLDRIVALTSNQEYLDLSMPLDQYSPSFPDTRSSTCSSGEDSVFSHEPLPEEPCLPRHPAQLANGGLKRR
NUAK1, sequence (O60285 whole entry, species assumed): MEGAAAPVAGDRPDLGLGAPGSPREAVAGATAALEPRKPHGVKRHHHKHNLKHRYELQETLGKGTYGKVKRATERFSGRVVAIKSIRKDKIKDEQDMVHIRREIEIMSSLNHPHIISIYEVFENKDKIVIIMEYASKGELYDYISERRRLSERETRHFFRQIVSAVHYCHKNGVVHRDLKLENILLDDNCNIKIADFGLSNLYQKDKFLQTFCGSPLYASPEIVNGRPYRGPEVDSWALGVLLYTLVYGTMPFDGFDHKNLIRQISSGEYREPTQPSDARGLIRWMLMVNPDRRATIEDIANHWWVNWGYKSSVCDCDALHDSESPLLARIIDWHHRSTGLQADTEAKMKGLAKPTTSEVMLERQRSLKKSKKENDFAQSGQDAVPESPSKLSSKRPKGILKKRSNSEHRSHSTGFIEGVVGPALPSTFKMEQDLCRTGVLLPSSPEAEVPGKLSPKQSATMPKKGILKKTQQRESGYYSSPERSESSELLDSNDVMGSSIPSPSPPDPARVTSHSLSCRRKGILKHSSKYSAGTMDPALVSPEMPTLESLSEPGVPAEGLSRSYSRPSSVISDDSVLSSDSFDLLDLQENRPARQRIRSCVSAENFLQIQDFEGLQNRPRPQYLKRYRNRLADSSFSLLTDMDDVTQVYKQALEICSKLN
EPH-A2, sequence (P29317 24-976, species assumed): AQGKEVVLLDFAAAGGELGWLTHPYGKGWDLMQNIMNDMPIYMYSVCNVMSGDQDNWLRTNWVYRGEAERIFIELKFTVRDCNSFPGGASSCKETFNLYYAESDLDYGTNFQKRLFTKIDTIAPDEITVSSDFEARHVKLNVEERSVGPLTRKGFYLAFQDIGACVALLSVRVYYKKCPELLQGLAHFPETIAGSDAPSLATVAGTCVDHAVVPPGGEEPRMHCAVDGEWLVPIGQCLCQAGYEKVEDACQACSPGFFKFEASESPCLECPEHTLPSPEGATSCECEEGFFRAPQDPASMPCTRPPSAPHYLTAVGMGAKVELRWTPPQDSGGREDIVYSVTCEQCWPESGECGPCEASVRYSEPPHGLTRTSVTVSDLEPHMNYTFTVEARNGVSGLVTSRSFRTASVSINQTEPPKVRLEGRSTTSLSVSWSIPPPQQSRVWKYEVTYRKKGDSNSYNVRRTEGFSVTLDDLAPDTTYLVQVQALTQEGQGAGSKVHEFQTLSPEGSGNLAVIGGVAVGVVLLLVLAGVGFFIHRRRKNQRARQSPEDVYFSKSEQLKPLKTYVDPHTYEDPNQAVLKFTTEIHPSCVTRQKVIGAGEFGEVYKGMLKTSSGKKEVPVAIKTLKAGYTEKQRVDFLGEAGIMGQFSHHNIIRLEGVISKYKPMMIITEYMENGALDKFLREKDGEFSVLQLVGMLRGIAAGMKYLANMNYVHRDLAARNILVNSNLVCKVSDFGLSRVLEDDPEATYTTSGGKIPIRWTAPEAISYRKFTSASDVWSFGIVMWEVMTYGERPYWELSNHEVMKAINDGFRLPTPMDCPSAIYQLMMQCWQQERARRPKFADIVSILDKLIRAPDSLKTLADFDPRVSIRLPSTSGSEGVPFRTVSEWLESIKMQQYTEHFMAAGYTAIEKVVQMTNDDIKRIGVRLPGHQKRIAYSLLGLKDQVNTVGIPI
AuroraB, sequence (Q96GD4 whole entry): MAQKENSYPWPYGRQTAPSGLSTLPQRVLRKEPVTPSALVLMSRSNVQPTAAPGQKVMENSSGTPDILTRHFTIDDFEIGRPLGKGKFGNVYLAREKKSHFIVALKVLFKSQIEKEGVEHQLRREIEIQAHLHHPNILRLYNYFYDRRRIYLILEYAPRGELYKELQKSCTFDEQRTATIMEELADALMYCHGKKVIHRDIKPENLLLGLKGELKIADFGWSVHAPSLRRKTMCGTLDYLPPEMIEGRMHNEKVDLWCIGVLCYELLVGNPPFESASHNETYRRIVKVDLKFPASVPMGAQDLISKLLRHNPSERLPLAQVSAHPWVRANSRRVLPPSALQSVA
SRPK1, sequence (Q96SB4 whole entry, species assumed): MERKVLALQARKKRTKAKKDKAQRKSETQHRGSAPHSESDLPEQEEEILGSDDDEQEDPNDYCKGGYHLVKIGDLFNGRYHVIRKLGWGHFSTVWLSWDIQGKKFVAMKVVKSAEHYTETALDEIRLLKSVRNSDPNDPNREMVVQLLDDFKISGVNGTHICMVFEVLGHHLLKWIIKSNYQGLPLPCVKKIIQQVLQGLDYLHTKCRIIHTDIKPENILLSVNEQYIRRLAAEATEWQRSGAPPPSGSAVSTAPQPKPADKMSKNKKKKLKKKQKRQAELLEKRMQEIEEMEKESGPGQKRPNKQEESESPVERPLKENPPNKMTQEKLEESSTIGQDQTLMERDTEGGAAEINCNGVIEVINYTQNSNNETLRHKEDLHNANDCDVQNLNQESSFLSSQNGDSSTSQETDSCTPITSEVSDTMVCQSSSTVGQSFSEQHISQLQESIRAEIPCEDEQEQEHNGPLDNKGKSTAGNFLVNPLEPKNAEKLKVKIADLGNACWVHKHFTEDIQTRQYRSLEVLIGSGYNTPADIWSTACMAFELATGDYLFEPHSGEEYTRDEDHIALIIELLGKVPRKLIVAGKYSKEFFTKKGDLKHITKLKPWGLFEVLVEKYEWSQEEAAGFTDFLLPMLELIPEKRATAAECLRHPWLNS

Structure (SMILES)	percentage inhibition of HIPK2 (HIPK2) [percentage]	percentage inhibition of EPH-A2 (EPH-A2) [percentage]	percentage inhibition of FGF-R1 (FGF-R1) [percentage]	percentage inhibition of NUAK1 (NUAK1) [percentage]	percentage inhibition of CK1δ (CK1δ) [percentage]	percentage inhibition of CAMKKb (CAMKKb) [percentage]	percentage inhibition of SRPK1 (SRPK1) [percentage]	percentage inhibition of AuroraB (AuroraB) [percentage]
c1cc2[nH]nc3c2c(n1)N(C1CCC1)CCC3 [Example 22, 6-cyclobutyl-6,7,8,9-tetrahydro-2H-1,2,5,6-tetraazabenzo[cd]azulene]	11	0	11	8	0	5	0	23
c1cc2[nH]nc3c2c(n1)N(C1CCCC1)CCC3 [Example 23, 6-cyclopentyl-6,7,8,9-tetrahydro-2H-1,2,5,6-tetraazabenzo[cd]azulene]	3	0	19	17	0	7	0	1
c1cc2[nH]nc3c2c(n1)N(C1CCOCC1)CCC3 [Example 29, 6-(tetrahydro-2H-pyran-4-yl)-6,7,8,9-tetrahydro-2H-1,2,5,6-tetraazabenzo[cd]azulene]	3	0	12	7	11	0	0	29
CN1CCC(N2Cc3ccccc3-c3n[nH]c4ccnc2c34)CC1 [Example 55]	1	0	9	76	12	0	0	38
CC(C)n1ncc2c1CN(C1CCN(C)CC1)c1nccc3[nH]nc-2c13 [Example 68]	0	0	35	65	3	0	0	19
